Results from article PMC7290235, “Regulation of Exopolysaccharide Production by ProE, a Cyclic-Di-GMP Phosphodiesterase in Pseudomonas aeruginosa PAO1” (Frontiers in Microbiology, 2020).

Assays:
WspR = biological target: T1, WspR (Pseudomonas aeruginosa, UniProt Q9HXT9); test: HPLC of c-di-GMP formation; format: biochemical; details: 500 uM GTP, 5 uM enzyme, Tris-HCl pH 7.8, 250 mM NaCl, 25 mM KCl, 10 mM MgCl2, 37 C, 120 min
T1 construct: wspR in pET28b(+) (BamHI/HindIII), His tag, Ni-NTA purified; tag removal not mentioned

ProE = biological target: T2, ProE (Pseudomonas aeruginosa, UniProt Q9HTQ9); test: HPLC of pGpG formation, […] nm; format: biochemical; details: 50 uM c-di-GMP, 0.08 uM enzyme, Tris-HCl pH 8.0, 20 mM KCl, 5 mM MgCl2, 37 C, 20 min
T2 construct: gene PA5295; coding region in pET28b(+) (BamHI/HindIII), His tag, Ni-NTA purified; GGDEF 113-282, EAL 292-538; tag removal not mentioned
T2 sequence (Q9HTQ9 entry or part of it): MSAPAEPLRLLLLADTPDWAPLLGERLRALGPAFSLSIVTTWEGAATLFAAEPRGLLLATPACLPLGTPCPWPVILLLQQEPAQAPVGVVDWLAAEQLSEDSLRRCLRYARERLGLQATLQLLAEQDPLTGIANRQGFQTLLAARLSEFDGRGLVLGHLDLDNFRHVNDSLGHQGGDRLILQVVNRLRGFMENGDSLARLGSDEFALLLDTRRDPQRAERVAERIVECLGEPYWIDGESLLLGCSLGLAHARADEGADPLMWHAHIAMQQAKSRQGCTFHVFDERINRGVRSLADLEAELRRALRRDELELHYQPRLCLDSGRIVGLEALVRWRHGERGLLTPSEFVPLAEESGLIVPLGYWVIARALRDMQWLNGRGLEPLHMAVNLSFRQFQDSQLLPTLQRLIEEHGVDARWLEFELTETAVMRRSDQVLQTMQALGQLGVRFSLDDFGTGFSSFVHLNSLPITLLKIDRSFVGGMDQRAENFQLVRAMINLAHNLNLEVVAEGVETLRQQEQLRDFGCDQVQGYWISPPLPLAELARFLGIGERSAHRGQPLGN

T1 sequence (Q9HXT9 entry or part of it): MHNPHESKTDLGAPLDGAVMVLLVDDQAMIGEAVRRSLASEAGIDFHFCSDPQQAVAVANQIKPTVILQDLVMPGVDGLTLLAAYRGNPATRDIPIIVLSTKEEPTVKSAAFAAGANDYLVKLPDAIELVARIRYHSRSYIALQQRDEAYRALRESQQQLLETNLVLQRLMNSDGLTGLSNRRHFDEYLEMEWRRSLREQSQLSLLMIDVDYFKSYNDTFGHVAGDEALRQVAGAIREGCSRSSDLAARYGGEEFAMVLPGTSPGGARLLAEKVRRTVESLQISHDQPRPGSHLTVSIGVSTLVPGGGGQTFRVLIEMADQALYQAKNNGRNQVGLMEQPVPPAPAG

Structure (SMILES)	HPLC of c-di-GMP formation (WspR)	HPLC of pGpG formation, 254 nm (ProE)
Nc1nc2c(ncn2[C@@H]2O[C@H](COP(=O)(O)OP(=O)(O)OP(=O)(O)O)[C@@H](O)[C@H]2O)c(=O)[nH]1 [GTP]	the control protein WspR could convert most GTP into c-di-GMP	
Nc1nc2c(ncn2[C@@H]2O[C@@H]3COP(=O)(O)O[C@H]4[C@@H](O)[C@H](n5cnc6c(=O)[nH]c(N)nc65)O[C@@H]4COP(=O)(O)O[C@H]3[C@H]2O)c(=O)[nH]1 [c-di-GMP]		HPLC analysis showed that the degradation product pGpG was produced
